On the set-up of data set [1]: method as in PMID 31787491, PMID 34710625. Particulars: previously reported tricycles, Figure 2; cited from earlier work.
Details of data set [2]: method as in PMID 31787491, PMID 34710625. Conditions: previously reported tricycles, Figure 2; cited from earlier work. The source holds these as a separate data set.
The target of data set [3] is T1, human M4 (hM4) (Homo sapiens, UniProt P08173).
T1 construct: expressed in transfected cells
T1 sequence (P08173 1-479): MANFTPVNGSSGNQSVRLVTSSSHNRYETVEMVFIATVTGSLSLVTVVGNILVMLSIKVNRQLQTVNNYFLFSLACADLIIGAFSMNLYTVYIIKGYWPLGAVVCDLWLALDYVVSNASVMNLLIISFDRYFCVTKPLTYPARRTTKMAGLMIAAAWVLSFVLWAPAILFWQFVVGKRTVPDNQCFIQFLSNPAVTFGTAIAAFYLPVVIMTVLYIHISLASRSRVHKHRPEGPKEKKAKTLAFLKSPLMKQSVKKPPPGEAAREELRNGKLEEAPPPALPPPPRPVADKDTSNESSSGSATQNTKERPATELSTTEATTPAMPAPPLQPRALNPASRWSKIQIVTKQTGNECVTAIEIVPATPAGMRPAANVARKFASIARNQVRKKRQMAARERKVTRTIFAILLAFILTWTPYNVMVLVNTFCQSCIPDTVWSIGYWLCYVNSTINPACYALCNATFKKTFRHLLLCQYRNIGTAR
Nature of the data set: Calcium mobilization assay, hM4/Gqi5-CHO cells, EC20 acetylcholine (PAM). Type of data set: cell-based. A general note: Calcium assays in cells follow changes in intracellular calcium, usually with a dye or a luminescent sensor.

Data set [4] concerns the target rat M4 (rM4) (Rattus norvegicus, UniProt P08485). Nature of the data set: Calcium mobilization assay, rat M4. Type of data set: cell-based.
The nature of data set [5]: Intrinsic clearance in rat liver microsomes. The format is in vitro ADME. On the procedure:
(§1) Intrinsic Clearance in Rat and Human Liver Microsomes
(§2) The in vitro intrinsic clearance (CL int) was investigated in commercially obtained hepatic microsomes from rat and human donors using the substrate depletion (i.e., loss-of-parent vs. time, or t 1/2 method) approach with analyte detection via liquid chromatography-tandem mass spectrometry (LC-MS/MS). For each species, mean %parent remaining values at each time point were calculated from replicates raw data (analyte:IS peak area ratios) and used to determine in vitro t 1/2 and CLint.
(§3) Experiments were carried out using a robot-assisted (TECAN model Evo 200). Compound was incubated (1 µM final concentration) in buffer (100 mM potassium phosphate pH 7.4 with 3 mM MgCl2) containing hepatic microsomes (0.5 mg/mL final concentration) from multiple species, discretely, at 37 °C under constant orbital shaking. After 5 minutes (pre-incubation), reactions were initiated by addition of nicotinamide adenine dinucleotide phosphate (NADPH, 1 mM final concentration). At selected time intervals (0, 3, 7, 15, 25, and 45 minutes) post-addition of NADPH, aliquots (50 µL) were taken and placed into a 96-shallow-well plate containing ice cold acetonitrile (150 µL) with carbamazepine (IS, 50 nM). The plates were then centrifuged (3000 rcf at 4 °C) for 10 minutes. The supernatants were transferred to a new 96-shallow-well daughter plate and diluted (1:1 v/v) with water (Milli-Q filtered). The plates were then sealed in preparation for LC-MS/MS analysis (see below).
(§4) Raw LC-MS/MS peak area data generated from the assay samples were used to construct natural log-transformed %parent remaining vs. time plots (using t = 0 minute post-NADPH addition sample data as starting point set to 100%). In vitro compound half-life (t 1/2) values were obtained using the following […]
(§5) k is the slope from linear regression analysis of the natural log-transformed data (using means from Where all replicates at each time point). Resulting t 1/2 values were then used to calculate hepatic CLint values according to the following equation and with the use of species-specific scale-up factors for liver weight (grams) per total body weight (kg): […]
(§6) CLint = in vitro t1/2 x 0.5 mg microsomes x 1 gram liver x kg body wt aScale-up factors used are 45 (rat) and 20 (human).2
(§7) Predicted hepatic clearance (CLhep) was calculated using the following equation: […]
(§8) Qh represents hepatic blood flow (mL/min/kg): 21 for human, 70 for rat, and 90 for mouse.
(§9) Prepared samples were injected (10 µL each) onto an AB Sciex Triple Quad 4500 mass spectrometer system with an Agilent 1260 Infinity II pump and autosampler. Mass spectrometer conditions are described in Table S1. Quantitation of compounds was performed via AB Sciex Multiquant software using the raw analyte:IS peak area ratios. The typical detection range was 0.5 ng/mL to ≥ 5,000 ng/mL utilizing a quadratic equation regression with 1/x2 weighting. […]
(§10) Table S1. LC-MS/MS Conditions*
(§11) Mobile phase A 0.5% Formic Acid in Water
(§12) Mobile phase B 0.5% Formic Acid in Acetonitrile
(§13) Gradient Time % Mobile Phase B
In general terms: Liver microsomes are a subcellular fraction often used to study metabolism.

Data set [6] in a line: Intrinsic clearance in human liver microsomes. Type of data set: in vitro ADME. The procedure:
as §1, §2, §3, §4, §5, §6, §7, §8, §9, §10, §11, §12, §13

Data set [7] is described as follows: Binding in plasma from rat (equilibrium dialysis). Type of data set: in vitro ADME. Particulars: read-out: rat fu,plasma. The procedure: (§14) Binding in plasma from rat and human.
(§15) Determination of compounds’ fraction unbound (f u) in plasma from rat and human was conducted in vitro via equilibrium dialysis using HTDialysis membrane plates. Dialysis membranes (four paired strips per HTD assay) were hydrated as described by the manufacturer and inserted into the HTD plate, which was assembled and prepared for sample addition by the dispensing of blank buffer (DPBS, 100 µL/well) into the ‘top half’ of each membrane-split well. Each compound was diluted into plasma from each species (5 µM final concentration), which was aliquoted in triplicate to the ‘bottom half’ of the prepared HTD plate wells. The HTD plate was sealed and incubated for 6 hours at 37 °C. Following incubation, each well (both top and bottom halves) were transferred (20 µL) to the corresponding wells of a 96-shallow-well (V-bottom) plate. The daughter plates were then matrix-matched (buffer side wells received equal volume of plasma, and plasma side wells received equal volume of buffer), and extraction solution (120 µL; acetonitrile containing 50 nM carbamazepine as IS) was added to all wells of both daughter plates to precipitate protein and extract test article. The plates were then sealed and centrifuged (3500 rcf) for 10 minutes at ambient temperature. Supernatant (60 µL) from each well of the daughter plates was then transferred to the corresponding wells of new daughter plates (96-shallow-well, V bottom) containing water (Milli-Q, 60 µL/well), and the plates were sealed in preparation for LC-MS/MS analysis (see below). fu was calculated as (analyte to IS MS peak area ratio from Trans-buffer side) / (analyte to IS MS peak area ratio from Cis-plasma side). Mean values for each species were calculated from 3 replicates.
(In general: Equilibrium dialysis compares concentrations on both sides of a semipermeable membrane.)

The nature of data set [8]: Binding in plasma from human (equilibrium dialysis). The format is in vitro ADME. Conditions: human, plasma, read-out: human fu,plasma. On the procedure:
as §14, §15

The nature of data set [9]: Binding in brain homogenate from rat (equilibrium dialysis). Type of data set: in vitro ADME. On the procedure: Binding in brain homogenate from rat.
Determination of fraction unbound (f u) in brain homogenate from rat was conducted using the same methodology and procedure than described for plasma protein binding assay with the following modifications: 1) a final compound concentration of 1 μM was used, 2) naïve rat brains were homogenized in DPBS (1:3 composition of brain: DPBS, w/w) using a Mini-Bead Beater™ machine in order to obtain […]
The diluted fraction unbound (f u2) in brain was calculated as (analyte to IS MS peak area ratio from Trans-buffer side) / (analyte to IS MS peak area ratio from Cis-brain homogenate side). Undiluted fraction unbound for the brain was calculated using the following equation: […]
Mean values for each species were calculated from 3 replicates. […]

Data set [10] is described as follows: Rat plasma-to-brain level (PBL) cassette, brain distribution. Type of data set: in vivo. Particulars: SD rat, 0.2 mg/kg IV.
Description: Blood samples were collected serially from a surgically implanted carotid artery catheter in each animal over multiple post-administration time points (0.033, 0.117, 0.25, 0.5, 1, 2, 4, 7, and 24 hours) into chilled, K2EDTA anticoagulant-fortified tubes and immediately placed on wet ice. The blood samples were then centrifuged (1700 rcf, 5 minutes, 4 °C) in order to obtain plasma samples, which were stored at -80 °C until
For determination of the brain over plasma ratio (Kp), compounds were formulated in 8% ethanol, 32% PEG400 and 60% DMSO (v/v/v) and administered as a single 0.2 mg/kg IV dose (1 mL/kg) to male, Sprague Dawley rats (n = 1; 316 gram body weights) via injection into a surgically-implanted jugular vein catheter. At 15 min post dosing, blood sample was collected serially (i.e., terminally) into chilled, K2EDTA anticoagulant-fortified tube and immediately placed on wet ice. The blood sample was then centrifuged (1700 rcf, 5 minutes, 4 °C) to obtain plasma sample. At the same post-administration time point, whole brain sample was obtained by rapid dissection, rinsed with PBS, and immediately frozen in individual tissue collection box (dry ice). All brain and plasma samples were stored at -80 °C until analysis by LC-MS/MS.
Samples preparation for bioanalysis
Plasma samples from the in-life phase of the study were thawed at ambient temperature (benchtop), and then aliquots (20 µL per sample) were transferred to a 96-shallow-well (V-bottom) plate. […] Acetonitrile (120 µL) containing IS (10 nM carbamazepine) was added to each well of the plate to precipitate protein. The plate was then centrifuged (4000 rcf, 5 minutes, ambient temperature), and resulting supernatants (60 µL each) were transferred to a new 96-shallow-well (V-bottom) plate containing an equal volume (60 µL per well) of water (Milli-Q purified).
Preparation of brain samples was identical to that of plasma samples except for the following modifications. While thawing, brains were weighed (inside their collection boxes using a universal empty collection box tare weight) and then subjected to mechanical homogenization (Mini-BeadBeater™, BioSpec Products, Inc., Bartlesville, OK) in the presence of zirconia/silica beads (1.0 mm) and extraction buffer (isopropanol:water, 7:3, v/v; 3 mL per sample, corrected for post-quantitation).
[11] abbreviates: predicted hepatic clearance from microsomal CLint.
The mark [12] stands for this setting: fraction unbound, equilibrium dialysis.

The source of these data is article PMC11487561 (ACS Chemical Neuroscience, 2024).

Read-outs that look alike come from different tables or passages of the source.

rat M4 (rM4), sequence (P08485 whole entry): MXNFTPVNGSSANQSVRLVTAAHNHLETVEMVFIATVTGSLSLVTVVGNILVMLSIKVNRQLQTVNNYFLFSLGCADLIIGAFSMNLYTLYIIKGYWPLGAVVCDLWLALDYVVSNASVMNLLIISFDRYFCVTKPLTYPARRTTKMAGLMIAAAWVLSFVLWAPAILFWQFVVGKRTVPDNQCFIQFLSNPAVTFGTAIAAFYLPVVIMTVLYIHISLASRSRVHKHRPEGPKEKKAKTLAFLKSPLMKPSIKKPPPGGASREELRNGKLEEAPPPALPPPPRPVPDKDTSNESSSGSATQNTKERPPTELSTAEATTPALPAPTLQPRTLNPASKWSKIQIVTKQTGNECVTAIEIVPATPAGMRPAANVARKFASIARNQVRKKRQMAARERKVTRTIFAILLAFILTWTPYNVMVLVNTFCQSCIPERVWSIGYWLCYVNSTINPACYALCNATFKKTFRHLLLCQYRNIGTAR

Take `Cc1cc(C)c2c(n1)sc1c(N3CC4(COC4)C3)ncnc12` [VU6007215]: the “rat CLhep” value in data set [1] was 63 mL/min/kg. In addition, in data set [2], the Kp is recorded as 4.47 and the “Kp,uu” value is reported as 0.40.
Regarding `Cc1nc(C)c2c(n1)sc1c(N3CC4(C3)CC(F)(F)C4)ncnc12` [14h], the “fold increase in hM4 potency (EC50) vs comparator analogue” value in data set [3] (14h vs 14c, 22g vs 14j, 22j vs 14k, 22k vs 14g, 22f vs 14e) is recorded as 16 fold. Moreover, in data set [3] (calcium mobilization, hM4/Gqi5-CHO cells, EC20 acetylcholine, read-out: hM4 %ACh Max), the Emax amounted to 50%. Further, the EC50 in data set [3] (calcium mobilization, hM4/Gqi5-CHO cells, EC20 acetylcholine, read-out: hM4 EC50) was 100 nM; in data set [3] (calcium mobilization, hM4/Gqi5-CHO cells, EC20 acetylcholine, read-out: hM4 pEC50 (converted)), 102 nM; in [4], 380 nM. Further, the CLint scaled – broadly, a measure of how fast metabolising enzymes remove a compound, apart from limits set by blood flow – at 1 µM in data set [5] (pH 7.4, rat liver microsomes) is 121 mL/min/kg; in [6] (pH 7.4, human liver microsomes), 45 mL/min/kg. The “CLhep, rat” value in data set [5] (setting [11]) is reported as 44 mL/min/kg. In addition, in data set [6] (setting [11]), the “CLhep, human” value was 14 mL/min/kg. The fraction unbound at 6 h, 5 µM in data set [7] (setting [12]) is 0.132; in [7] (in %), > 0.05; in data set [8] (setting [12]), 0.035; in data set [8] (in %) it was 0.01 to 0.05. In addition, the rat fbrain in data set [9] (fraction unbound, equilibrium dialysis, rat brain homogenates) is recorded as 0.033. The fraction unbound at 6 h, 1 µM in data set [9] (rat, brain homogenate, in %, read-out: fu,brain (rat brain homogenate)) was 0.012 to 0.033. Besides, the “Kp, brain:plasma” value in [10] (0.25 h, total brain to total plasma ratio, 0.2 mg/kg) is listed as 5.07. Also, the “Kp,uu, brain:plasma” value in data set [10] (0.25 h, unbound brain to unbound plasma ratio, 0.2 mg/kg) worked out at 1.27; in [10] (0.25 h, unbound brain to unbound plasma ratio, listed as VU6015976, 0.2 mg/kg), 0.76. Also, in data set [10] (male, Sprague-Dawley, rat, brain / plasma, iv, 0.2 mg/kg, total brain to total plasma ratio), the Kp at 0.25 h is > 5. Also, the Kp uu at 0.25 h in [10] (male, Sprague-Dawley, rat, brain / plasma, iv, 0.2 mg/kg, unbound brain to unbound plasma ratio) is > 1.
Regarding `COc1cc(N2CC(Nc3ncnc4c3ccc3nn(C)c(C)c34)C2)c(Cl)cn1` [VU6017649], the “rat CLhep” value in data set [1] is reported as 44 mL/min/kg. In addition, in data set [2], the Kp is on record as 1.55 and the “Kp,uu” value is on record as 3.88.
